What was measured:
[1] = tested on: pY641-STAT6 in Peripheral Blood Mononuclear Cells (PBMC); assay: MSD-pSTAT-PBMC Assay (pSTAT6, IL-4 stimulated); assay type: cell-based, Human; settings: Homo sapiens, compound 3 hrs, then 1 ng/mL IL-4 for 10 min
Summary of the method: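 Human PBMCs were preincubated 3 h with compound, then stimulated 10 min with 10 ng/mL IL-6 (pY705-STAT3) or 1 ng/mL IL-4 (pY641-STAT6). Lysates were read by MSD sandwich immunoassay, capturing total STAT and detecting phospho-STAT. Signal was unstimulated-subtracted and DMSO-normalised, with variable-slope IC50 binned A–D.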

[2] = tested on: pY705-STAT3 in Peripheral Blood Mononuclear Cells (PBMC); assay: MSD-pSTAT-PBMC Assay (pSTAT3, IL-6 stimulated); assay type: cell-based, Human; settings: Homo sapiens, compound 3 hrs, then 10 ng/mL IL-6 for 10 min
Text: Cryopreserved Peripheral Blood Mononuclear Cells (PBMC) are from AllCells. Recombinant Human IL-4 and IL-6 are from Peprotech. Mouse monoclonal anti-STAT3 antibody, rabbit monoclonal anti-pY705-STAT3 antibody, rabbit monoclonal Anti-pY641-STAT6 antibody, and lysis buffer are from Cell Signaling Technology (CST). Mouse monoclonal anti-STAT6 antibody is from BioLegend. Assay plates, blocker, and anti-rabbit secondary antibody are from Meso Scale Discovery (MSD).
Cryopreserved PBMCs were thawed out and allowed to recover overnight in IMDM+10% heat-inactivated FBS prior to plating 50,000 (STAT3) or 25,000 (STAT6) cells per well in 96-well U-bottom tissue culture plates. Cells were treated with compound for 3 hrs, then stimulated with 10 ng/mL IL-6 (STAT3) or 1 ng/mL IL-4 (STAT6) for 10 min. Cells were then spun down and washed with ice-cold PBS prior to lysing the cell pellet with 1× lysis buffer (CST) with 1×HALT protease and phosphatase inhibitor cocktail (Thermo). Lysates were transferred to and incubated overnight at 4° C. with shaking in QuickPlex 96-well high bind assay plates (MSD) pre-coated overnight with 30 μL per well of 0.6 μg/mL mouse monoclonal anti-STAT3 antibody (STAT3) or 2 μg/mL mouse monoclonal anti-STAT6 antibody (STAT6) in 1×PBS, and pre-blocked for 1 hour with 3% Blocker-A (MSD). Captured protein in the assay plates were then washed and probed with 25 μL per well of 0.25 μg/ml rabbit monoclonal anti-pY705-STAT3 antibody (STAT3) or […] rabbit monoclonal Anti-pY641-STAT6 antibody (STAT6) in 1% Blocker-A for 1 hour at room temperature with shaking, then washed and probed with 25 ul per well of 1 ug/ml Sulfo-TAG Labeled Goat Anti-Rabbit Antibody (MSD) in 1% Blocker-A for 1 hour at room temperature with shaking. Assay plates were then washed and 150 μL of 1× Read Buffer-T (MSD) was added to each well prior to reading on an SQ120 MSD Plate Reader. Assay signal from each sample was subtracted by the signal from unstimulated control wells and normalized to DMSO control wells. IC50 values were calculated using Graph Pad Prism Dose-Response Nonlinear Regression with variable slope. For both pSTAT3 and pSTAT6 A=≤100 nM; B=>100-1000 nM; C=>1000-3000 nM; and D=>3 μM.

| Compound | IC50 [1] [nM] | IC50 [2] [nM] |
| --- | --- | --- |
| CC(=O)N1CC[C@H]2CC[C@@H](C(=O)Nc3ccc4nnccc4c3)N2C(=O)[C@@H](NC(=O)c2cc3cc(C(F)(F)P(=O)(OCOC(=O)C(C)(C)C)OCOC(=O)C(C)(C)C)ccc3s2)C1 [Compound 294, ((((2-(((5S,8S, 10aR)-3-acetyl-8-(cinnolin-6-ylcarbamoyl)-6-oxodecahydro-pyrrolo[1,2-a][1,5]diazocin-5-yl)carbamoyl)benzo[b]thiophen-5-yl)difluoro-methyl)phos-phoryl)bis(oxy)) bis(methylene) bis(2,2-dimethylpro-panoate)] | 100 to 1000 | 100 to 1000 |
| CC(=O)N1CC[C@H]2CC[C@@H](C(=O)N(C)c3ccccc3)N2C(=O)[C@@H](NC(=O)c2cc3cc(C(=O)P(=O)(OCOC(=O)C(C)(C)C)OCOC(=O)C(C)(C)C)ccc3s2)C1 [Compound 307, (((2-(((5S, 8S,10aR)-3-acetyl-8-(methyl (phenyl)carbamoyl)-6-oxo-decahydro-pyrrolo[1,2-a][1,5]diazocin-5-yl)carbamoyl)benzo[b]thiophene-5-carbonyl)phosphoryl)bis(oxy))bis (methylene) bis(2,2-dimethylpro-panoate)] | > 3000 | > 3000 |
| CC(=O)N1CC[C@H]2CC[C@@H](C(=O)N(C)c3ccc(C(C)(C)C)cc3)N2C(=O)[C@@H](NC(=O)c2cc3cc(C(F)(F)P(=O)(OCOC(=O)C(C)(C)C)OCOC(=O)C(C)(C)C)ccc3s2)C1 [Compound 319, ((((2-(((5S,8S, 10aR)-3-acetyl-8-((4-(tert-butyl)phenyl) (methyl)carbamoyl)-6-oxodecahydro-pyrrolo[1,2-a][1,5]diazocin-5-yl)carbamoyl)benzo[b]thiophen-5-yl)difluoro-methyl)phos-phoryl)bis(oxy)) bis(methylene) bis(2,2-dimethylpro-panoate)] | ≤ 100 | 100 to 1000 |
| CC(=O)N1CC[C@H]2CC[C@@H](C(=O)N(C)c3ccccc3)N2C(=O)[C@@H](NC(=O)c2cc3cc(C(F)(F)P(=O)(OCOC(=O)C(C)(C)C)OCOC(=O)C(C)(C)C)ccc3[nH]2)C1 [Compound 300, ((((2-(((5S, 8S,10aR)-3-acetyl-8-(methyl (phenyl)carbamoyl)-6-oxodecahydro-pyrrolo[1,2-a][1,5]diazocin-5-yl)carbamoyl)-1H-indol-5-yl)difluoro-methyl)phos-phoryl)bis(oxy)) bis(methylene) bis(2,2-dimethylpro-panoate)] | 100 to 1000 | 100 to 1000 |
| CC(=O)N1CC[C@H]2CC[C@@H](C(=O)N(C)c3ccccc3)N2C(=O)[C@@H](NC(=O)c2cc3cc(C(F)P(=O)(OCOC(=O)C(C)(C)C)OCOC(=O)C(C)(C)C)ccc3s2)C1 (stereo partly drawn) [Compound 295, ((((2-(((5S,8S, 10aR)-3-acetyl-8-(methyl (phenyl)carbamoyl)-6-oxodecahydro-pyrrolo[1,2-a][1,5]diazocin-5-yl)carbamoyl)benzo[b]thiophen-5-yl)fluoro-methyl)phos-phoryl)bis(oxy))bis (methylene) bis(2,2-dimethylpro-panoate)] | 100 to 1000 | 100 to 1000 |
| CC(=O)N1CC[C@H]2CC[C@@H](C(=O)N(C)c3ccccc3)N2C(=O)[C@@H](NC(=O)c2ccc3cc(C(F)(F)P(=O)(OCOC(=O)C(C)(C)C)OCOC(=O)C(C)(C)C)ccc3c2)C1 [Compound 322, ((((6-(((5S,8S, 10aR)-3-acetyl-8-(methyl (phenyl)carbamoyl)-6-oxodecahydro-pyrrolo[1,2-a][1,5]diazocin-5-yl)carbamoyl)naphthalen-2-yl)difluoro-methyl)phos-phoryl)bis(oxy)) bis(methylene) bis(2,2-dimethylpro-panoate)] | > 3000 | > 3000 |
| CC(=O)N1CC[C@H]2CC[C@@H](C(=O)N3C[C@H](c4ccccc4)[C@@H](C#N)C3)N2C(=O)[C@@H](NC(=O)c2cc3cc(C(F)(F)P(=O)(OCOC(=O)OC(C)C)OCOC(=O)OC(C)C)ccc3s2)C1 (single isomer, unassigned) [Compound 285, ((((2-(((5S,8S, 10aR)-3-acetyl-8-((3R,4S or 3S,4R)-3-cyano-4-phenyl-pyrrolidine-1-carbonyl)-6-oxodecahydro-pyrrolo[1,2-a][1,5]diazocin-5-yl)carbamoyl)benzo[b]thiophen-5-yl)difluoro-methyl)phos-phoryl)bis(oxy)) bis(methylene) diisopropyl bis(carbonate)] | ≤ 100 | 100 to 1000 |
| CC(C)(C)C(=O)OCOP(=O)(OCOC(=O)C(C)(C)C)C(F)(F)c1ccc2ccc(C(=O)N[C@H]3CN(CC(F)F)CC[C@H]4CC[C@@H](C(=O)N5C[C@@H](C#N)[C@H](c6ccccc6)C5)N4C3=O)cc2c1 (single isomer, unassigned) [Compound 346] | ≤ 100 | 100 to 1000 |
| CC(C)(C)C(=O)SCCOP(=O)(OCCSC(=O)C(C)(C)C)C(F)(F)c1ccc2ccc(C(=O)N[C@H]3CN(CC(F)F)CC[C@H]4CC[C@@H](C(=O)N5C[C@@H](C#N)[C@H](c6ccccc6)C5)N4C3=O)cc2c1 (single isomer, unassigned) [Compound 342, S,S′-(((((7-(((5S,8S,10aR)-8-((3S,4R or 3R,4S)-3-cyano-4-phenylpyrrolidine-1-carbonyl)-3-(2,2-difluoroethyl)-6-oxodecahydropyrrolo[1,2-a][1,5]diazocin-5-yl)carbamoyl)naphthalen-2-yl)difluoromethyl)phosphoryl)bis(oxy))bis (ethane-2,1-diyl))bis(2,2-dimethylprop anethioate)] | 100 to 1000 | > 3000 |
| CC(C)CC(=O)SCCOP(=O)(OCCSC(=O)CC(C)C)C(F)(F)c1ccc2ccc(C(=O)N[C@H]3CN(CC(F)F)CC[C@H]4CC[C@@H](C(=O)N5C[C@H](c6cc(F)cc(F)c6)[C@@H](C#N)C5)N4C3=O)cc2c1 (relative stereo) [Compound 341, S,S′-(((((7-(((5S,8S,10aR)-8-((rel-trans)-3-cyano-4-(3,5-difluorophenyl)pyrrolidine-1-carbonyl)-3-(2,2-difluoroethyl)-6-oxodecahydropyrrolo[1,2-a][1,5]diazocin-5-yl)carbamoyl)naphthalen-2-yl)difluoromethyl)phosphoryl)bis(oxy))bis(ethane-2,1-diyl))bis(3-methylbutanethioate)] | 1000 to 3000 | > 3000 |
| CCN1CC[C@H]2CC[C@@H](C(=O)N3CC(C(=O)N4CCOCC4)C3)N2C(=O)[C@@H](NC(=O)c2cc3cc(C(F)(F)P(=O)(OCOC(=O)C(C)(C)C)OCOC(=O)C(C)(C)C)ccc3s2)C1 [Compound 353, ((((2-(((5S,8S,10aR)-3-ethyl-8-(3-(morpholine-4-carbonyl)azetidine-1-carbonyl)-6-oxodecahydropyrrolo[1,2-a][1,5]diazocin-5-yl)carbamoyl)benzo[b]thiophen-5-yl)difluoromethyl)phosphoryl)bis(oxy)) bis(methylene) bis(2,2-dimethylpropanoate)] | > 3000 | ≤ 100 |
| CC(C)(C)C(=O)SCCOP(=O)(OCCSC(=O)C(C)(C)C)C(F)(F)c1ccc2ccc(C(=O)N[C@H]3CN(CC(F)F)CC[C@H]4CC[C@@H](C(=O)N5CC[C@H](c6ccccc6)[C@@H](C#N)C5)N4C3=O)cc2c1 (relative stereo) [Compound 340, S,S′-(((((7-(((5S,8S,10aR)-8-((rel-trans)-3-cyano-4-phenylpiperidine-1-carbonyl)-3-(2,2-difluoroethyl)-6-oxodecahydropyrrolo[1,2-a][1,5]diazocin-5-yl)carbamoyl)naphthalen-2-yl)difluoromethyl)phosphoryl)bis(oxy))bis (ethane-2,1-diyl))bis(2,2-dimethylpropanethioate)] | > 3000 | > 3000 |
| CCCOC(=O)OCOP(=O)(OCOC(=O)OCCC)C(F)(F)c1ccc2sc(C(=O)N[C@H]3CN(C(C)=O)CC[C@H]4CC[C@@H](C(=O)N(C)c5ccccc5)N4C3=O)cc2c1 [Compound 286, ((((2-(((5S, 8S,10aR)-3-acetyl-8-(methyl (phenyl)carbamoyl)-6-oxodecahydro-pyrrolo[1,2-a][1,5]diazocin-5-yl)carbamoyl)benzo[b]thiophen-5-yl)difluoro-methyl)phosphoryl)bis(oxy)) bis(methylene) dipropyl bis(carbonate)] | 100 to 1000 | 100 to 1000 |

Source: patent publication US20250179103A1, “6-OXODECAHYDROPYRROLO[1,2-A][1,5]DIAZOCINE AND 6-OXODECAHYDRO-4H-PYRROLO[2,1-D][1,5]THIAZOCINE DERIVATIVES AS STAT3 AND STAT6 MODULATORS FOR THE TREATMENT OF CANCER AND INFLAMMATORY CONDITIONS” (Recludix Pharma, Inc., priority 2022, published 2025)
